Measurements from US20090209474A1, “NOVEL USES FOR DRUGS TARGETING GLUTAMINE SYNTHETASE” (NEWTHERA, priority 2005, published 2009).
“Also recorded” adds a separate entry of the source. Like-named read-outs stand apart in the source and are kept apart here.

Key:
rats [1] = conditions: cited from earlier work
dogs = conditions: based on decreased body weight at higher doses; cited from earlier work
CA3 pyramidal neurons = test: Surface of CA3 pyramidal neurons (Golgi) in corticosterone-administered rats; type: in vivo, Wistar rats; conditions: 21 days
[2] = system: glucocorticoid receptor (GR); test: Brain glucocorticoid receptor expression by ELISA in corticosterone-administered rats; type: in vivo, Wistar rats; conditions: for brain GR expression: GF 0.1 and 3 mg/kg, MS 0.5, 15 and 45 mg/kg, tianeptine 0.5 mg/kg, versus PCB
rabbits = conditions: rabbit, in vivo; cited from earlier work
rats [3] = conditions: rat, in vivo; cited from earlier work
Wistar rats [4] = test: Forced swimming test in corticosterone-administered rats; type: in vivo
pathogenic mycobacteria = conditions: cited from earlier work
GS [5] = conditions: literature (Meister 1985; Eisenberg et al., 2000); cited from earlier work
GS [6] = target: T1, GS (Rattus norvegicus, UniProt P09606); conditions: GF 1 mg/kg, tianeptine 10 mg/kg, methyprednisolone 5 mg/kg i.p.
[7] = in vivo, cited from earlier work
GS [8] = target: T1, GS; type: in vivo, Wistar rats; set-up: Wistar rat brain homogenates were incubated with naftazone; from tissue; host or cells: Wistar rat brain homogenate or membranes; in A19 also liver and lungs
mice [9] = conditions: cited from earlier work
GS [10] = target: T1, GS; conditions: for lung GS activity: versus PCB
purified sheep brain GS [11] = test: Purified sheep brain GS activity (Meister's method, gamma-glutamylhydroxamate formation); type: biochemical; conditions: for effect on GS subunit (monomer) activity: in presence of 2β-ME (DTT for tianeptine)
[12] = Adrenal weight of rats administered methylprednisolone; type: in vivo, Wistar rats
Description: Wistar rats were administered during 21 days once a day with methyprednisolone (5 mg/kg i.p.) plus GF (0.001, 0.01, 0.1 mg/kg), NF (1 and 10 mg/kg) or vehicle (PCB; i.p). Twenty-four hours after the last administrations, they were euthanatized. A complete necropsy was performed and main organs weighted.

Wistar rats [13] = test: Open field task in corticosterone-administered rats; type: in vivo; conditions: for resting time in the open field task: day 15, corticosterone 35 mg/kg s.c., versus PCB and Control
GS [14] = target: T2, GS (Mus musculus, UniProt P15105); conditions: 24 h after single i.p.
Wistar rats [15] = test: PTZ-induced seizures; type: in vivo
rats [16] = conditions: rat, in vivo; cited from earlier work; remark: listed apart in the source
mice [17] = conditions: cited from earlier work; remark: listed apart in the source
[18] = Adrenal weight in corticosterone-administered rats; type: in vivo, Wistar rats; conditions: 21 days, versus PCB
GS [19] = conditions: rat, in vivo
brain GS [20] = target: T3, brain GS (Mus musculus, UniProt P15105); conditions: i.p. 7 days
GS [21] = target: T2, GS; type: in vivo, BALB/c mice; set-up: from tissue; host or cells: mouse brain (whole brain, cortex, hippocampus, thalamus/hypothalamus); conditions: 24 h after single i.p.; NF 10 and 100 mg/kg, GF 1 mg/kg
Description: Cortex, hippocampi and thalamus/hypothalamus were carefully isolated immediately after euthanasia. Membranes were prepared and the activity of GS determined in these different structures (as mentioned above for the whole brain).

brain GS [22] = target: T3, brain GS; conditions: 24 h after single i.p.
M. tuberculosis = conditions: MS with isoniazid (INH); cited from earlier work
bacterial GS = bacterial GS (Mycobacterium tuberculosis, UniProt P9WN39); conditions: cited from earlier work
rat lung GS protein = conditions: cited from earlier work
purified sheep brain GS [23] = conditions: Rueppel et al., 1972; cited from earlier work
[24] = day 19, corticosterone 35 mg/kg s.c., versus PCB and Control
[25] = 21 days, versus PCB and Control
[26] = GF 3 mg/kg, tianeptine 15 mg/kg

T2 sequence (P15105 2-373 limits assumed): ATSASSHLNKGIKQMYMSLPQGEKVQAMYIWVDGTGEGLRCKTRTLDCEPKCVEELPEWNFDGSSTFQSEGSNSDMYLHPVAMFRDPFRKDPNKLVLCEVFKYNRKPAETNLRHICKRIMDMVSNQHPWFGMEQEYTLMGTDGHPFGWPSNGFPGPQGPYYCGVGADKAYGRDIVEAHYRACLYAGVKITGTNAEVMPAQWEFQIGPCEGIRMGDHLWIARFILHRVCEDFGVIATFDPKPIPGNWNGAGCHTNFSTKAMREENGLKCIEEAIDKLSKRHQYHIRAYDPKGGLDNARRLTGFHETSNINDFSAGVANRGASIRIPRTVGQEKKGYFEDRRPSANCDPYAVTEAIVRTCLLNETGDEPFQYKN
T3 sequence (P15105 2-373 limits assumed): as above
T1 sequence (P09606 2-373 limits assumed): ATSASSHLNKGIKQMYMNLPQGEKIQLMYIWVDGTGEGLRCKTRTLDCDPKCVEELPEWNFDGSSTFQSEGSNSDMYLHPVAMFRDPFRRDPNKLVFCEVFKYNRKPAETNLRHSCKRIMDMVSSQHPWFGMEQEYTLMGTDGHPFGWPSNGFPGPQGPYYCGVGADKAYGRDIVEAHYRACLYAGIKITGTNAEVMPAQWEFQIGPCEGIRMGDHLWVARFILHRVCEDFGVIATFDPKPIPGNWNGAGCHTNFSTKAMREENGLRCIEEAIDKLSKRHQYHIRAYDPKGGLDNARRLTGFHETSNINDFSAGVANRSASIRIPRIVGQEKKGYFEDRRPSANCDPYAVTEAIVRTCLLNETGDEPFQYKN
bacterial GS, sequence (P9WN39 whole entry): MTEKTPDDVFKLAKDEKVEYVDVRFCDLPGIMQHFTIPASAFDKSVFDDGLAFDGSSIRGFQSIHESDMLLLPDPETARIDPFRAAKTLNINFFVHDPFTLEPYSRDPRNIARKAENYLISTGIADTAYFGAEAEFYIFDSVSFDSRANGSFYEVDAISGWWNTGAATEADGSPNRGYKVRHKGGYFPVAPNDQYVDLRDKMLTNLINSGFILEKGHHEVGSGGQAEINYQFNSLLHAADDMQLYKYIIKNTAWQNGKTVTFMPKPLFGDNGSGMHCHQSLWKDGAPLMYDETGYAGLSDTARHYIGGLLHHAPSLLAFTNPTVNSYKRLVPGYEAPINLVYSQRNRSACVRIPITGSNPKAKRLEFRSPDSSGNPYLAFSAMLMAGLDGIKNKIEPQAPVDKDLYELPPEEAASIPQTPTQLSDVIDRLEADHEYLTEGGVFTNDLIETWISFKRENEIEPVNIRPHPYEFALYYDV

CP(=O)(O)CCC(N)C(=O)O (racemic) [GF, ammonium 4-[hydroxy (methyl)phosphinoyl]-DL-homoalaninate]
NOAEL (rats [1]; increased kidney weight at 140 ppm): 40 ppm | NOAEL (rats [1]; rat, in vivo): 2.1 mg/kg bw/day | carcinogenicity (rats [1]; rat, in vivo): not carcinogenic | NOAEL (dogs): 4.5 mg/kg bw/day | effects of corticosterone on CA3 pyramidal neurons (CA3 pyramidal neurons; GF 15 mg/kg): failed to blunt the effects of corticosterone | effects of corticosterone on CA3 pyramidal neurons (CA3 pyramidal neurons; GF 0.1 and 3 mg/kg): prevent in part the deleterious effects of corticosterone | brain GR expression [2]: higher | NOAEL for maternal and embryo/fetal toxicity (rabbits): 6.3 mg/kg bw/day | teratogenicity (rabbits): not teratogenic | dose levels with effects on kidney weight (rats [3]): ≥ 0.52 mg/kg bw/day | immobility in the forced swimming test (Wistar rats [4]; GF 0.1 mg/kg, tianeptine 0.5 mg/kg): clear decrease in immobility | immobility in the forced swimming test (Wistar rats [4]; [24]): comparable or lower | effect on mycobacterium growth (pathogenic mycobacteria): only a very minor inhibitory effect | nature of the binding to GS (GS [5]): selective, irreversible GS ligand; also recorded: bind GS irreversibly | GS activity in the cortex (GS [6]): Trend to an Decrease | GS activity in the hippocampus (GS [6]): Increase of GS Activity | GS activity in the thalamus/hypothalamus (GS [6]; 1 h and 24 h after last administration): Decreased GS Activity | part of an oral dose eliminated in the urine ([7]; po): 10-15% | main metabolite found in urine and in faeces [7]: 3-[hydroxy(methyl)phosphinoyl] propionic acid | GS activity in the cortex, hippocampus and thalamus/hypothalamus (GS [8]; one hour after PTZ administration): increased GS activity | dose relation of the effects on GS activity (GS [8]; rat, in vivo): not proportional to the dose | NOAEL (mice [9]; based upon increased plasma potassium at next highest dose): 80 ppm | NOAEL (mice [9]; females): 19 mg/kg bw/day | NOAEL (mice [9]; males): 17 mg/kg bw/day | lung GS activity (GS [10]; 21 days, most rats): decrease in lung GS activity | brain GS activity (GS [10]; [25]): dose-dependent decrease | liver GS activity (GS [10]; [25]): clear decrease | lung GS activity (GS [10]; [26]): remained in the same range | type of competition (purified sheep brain GS [11]): competitive with L-glutamine | effect on GS activity at “high” concentrations (purified sheep brain GS [11]; in absence of 2βME): inhibit GS activity at “high” concentrations | “low concentrations” that activate GS activity (purified sheep brain GS [11]; in absence of 2βME): 10^−4 to 10^−11 M | effect on GS subunit (monomer) activity (purified sheep brain GS [11]): inhibit GS activity at “high” concentrations | methylprednisolone-induced adrenal atrophy ([12]; GF 0.001 mg/kg): fully prevented | adrenal weight ([12]; GF 0.001, 0.01, 0.1 mg/kg, NF 1 and 10 mg/kg, methyprednisolone 5 mg/kg i.p., 21 days, versus PCB): higher | dose relation of the effect on adrenal weight ([12]; rat, in vivo): non dose-dependent effect | resting time in the open field task (Wistar rats [13]): higher | GS activity in the hippocampus (GS [14]): dose-dependently increased GS activity | GS activity in the thalamus/hypothalamus (GS [14]): decreased GS activity | GS activity in the cortex (GS [14]; GF 0.1, 3, 15 mg/kg, tianeptine 0.5, 15, 45 mg/kg): no significant effect | seizure occurrence after PTZ administration (Wistar rats [15]; GF 0.5, 5, 25 mg/kg, tianeptine 1, 10, 50 mg/kg i.p. 1 h before PTZ 50 mg/kg i.p.): decreased seizure occurrence | dose relation of the effect on seizures (Wistar rats [15]; rat, in vivo): not dose-dependent | NOAEL for maternal and embryo/fetal toxicity (rats [16]): 2.2 mg/kg bw/day | teratogenicity (rats [16]): not teratogenic | NOAEL (mice [17]; increased mortality at higher dietary concentrations): 80 ppm | NOAEL (mice [17]; mouse, in vivo): 11 mg/kg bw/day | carcinogenicity (mice [17]; mouse, in vivo): not carcinogenic | adrenal weight [18]: higher | brain GS expression (GS [19]): higher | brain GS expression (brain GS [20]; [26]): increased also GS expression | whole brain GS activity (brain GS [20]; [26]): increase GS activity | dose relation of effects on GS activity and GS expression (brain GS [20]): dose-dependent | whole brain GS activity at higher doses (brain GS [20]; doses above GF 3 mg/kg, tianeptine 15 mg/kg): decreased GS activity | GS activity in the thalamus/hypothalamus (GS [21]): decreased

CS(=N)(=O)CC[C@H](N)C(=O)O (stereo partly drawn) [MS, 2-amino-4-(S-methylsulfonimidosyl)butanoic acid]
dose with the best protective effects on CA3 pyramidal neurons (CA3 pyramidal neurons): 15 mg/kg | brain GR expression [2]: higher | dose relation of the increase in GR expression ([2]; rat, in vivo): proportional to the dose | immobility in the forced swimming test (Wistar rats [4]; [24]): comparable or lower | effect on mycobacterium growth (pathogenic mycobacteria): block the growth | nature of the binding to GS (GS [5]): non-selective, irreversible GS ligand; also recorded: bind GS irreversibly | dose relation of effects on GS activity and GS expression (brain GS [22]): dose-dependent | dose with the highest GS activity (brain GS [22]): 0.312 mg/kg | whole brain GS activity (brain GS [22]; 0.078-20 mg/kg): increase GS activity | reduction of CFU in guinea pig organs below the level attained with INH alone (M. tuberculosis): ~1.5 log units | greater sensitivity to MS of bacterial GS than of mammalian GS (bacterial GS): 100 fold | lung GS activity (GS [10]; 21 days, most rats): decrease in lung GS activity | brain GS activity (GS [10]; [25]): dose-dependent decrease | liver GS activity (GS [10]; [25]): clear decrease | brain GS activity (GS [10]; MS at the and 45 mg/kg doses): lowest GS activities | type of competition (purified sheep brain GS [11]): competitive with L-glutamine | effect on GS subunit (monomer) activity (purified sheep brain GS [11]): inhibit GS activity at “high” concentrations | dose relation of the increase in resting time (Wistar rats [13]; day 15): proportional to the dose | resting time in the open field task (Wistar rats [13]): higher | augmentation of rat lung GS protein levels (rat lung GS protein; MS 100 mg/kg): 4 fold | augmentation of rat lung GS protein levels (rat lung GS protein; combination MS 100 mg/kg and dexamethasone 0.5 mg/kg): 12 fold | adrenal weight [18]: higher | brain GS expression (GS [19]): higher | whole brain GS activity (brain GS [20]; MS 0.5, 15, 45 mg/kg): decreased GS activity proportionally the dose | dose relation of effects on GS activity and GS expression (brain GS [20]): dose-dependent

CC(C)NNC(=O)c1ccncc1 [iproniazid, Iproniazid]
type of competition (purified sheep brain GS [23]): competes with hydroxylamine on the NH4 site | tested on GS activity: ligand or not (purified sheep brain GS [11]): GS ligands | effect on GS subunit (monomer) activity (purified sheep brain GS [11]): inhibit GS activity at “high” concentrations
